Assay results from patent publication US20230321025A1, “METHOD AND COMPOUND FOR THE TREATMENT AND ELIMINATION OF AN IMMUNODEFICIENCY CONDITION” (priority 2020, published 2023).
Values after ≈ are worked out from the molar mass of the structure shown. Values joined by “and” are separate entries in the source; they are usually repeats but may differ in a detail not shown here. Identical values can stand only once.

How the values were obtained:
HIV-1 (RF) = experiment: microbe, parasite or virus in culture; assay type: cell-based; settings: for Efficacy testing, optical density of single wells: listed as R2K18001 (90I)
Description: This assay was used to test the effectiveness of anti-HIV drug monotherapy in the established T-cell line CEM-SS infected with HIV-1RF, HIV-1IIIb, HIV-2ROD, or other cytolytic variants of HIV.
The drugs were solubilized in DMSO (dimethyl sulfoxide). […] CEM-SS cells were in logarithmic growth phase at the time of experimentation. Virus (HIV-1RF) stocks that past the necessary quality controls (killing effect on the type of cells used, limited variability, etc) were thawed and maintained on ice until required for addition.
Half-log serial dilutions of the antiviral agent or compound of the invention, H2K1001 (90i), were made in tissue culture media (RPMI 1640 without phenol red, supplemented with 10% heat inactivated fetal bovine serum, 1% L-Glutamine, 1% Pen/Strep and 50 ug/ml gentimycin). Virus, cell, drug and diluent (ethanol) controls were included for these tests. Virus was added after cells and drugs were mixed. Cell, drug, and virus containing cultures were incubated for six (6) days without additional feeding at which time the cultures were evaluated macroscopically and microscopically for cell toxicity, and the tetrazolium salt […] was added for quantitation by the colorimetric determination of formazan production (optical density).
Drug efficacy and cytotoxicity effects were determined six days after infection by the metabolic reduction of the tetrazolium salt XTT to its‘ formazan by surviving cells and was quantitated by determination of optical density at 450 nm with background subtraction at 650 nm (Tables 1-4).
The drug plate analysis reports from this assay are provided below in Tables 1-4. Calculated endpoints (EC50, etc.) were determined using Cho and Cho Median Effect Equation (Daids Virology Manual for HIV Laboratories, Compiled by The Division of Aids, National Institute of Allergy and Infectious Diseases, National Institutes of Health and Collaborating Investigators, Version January 1997).

[1] = system: peripheral blood mononuclear cells (PBMC); experiment: Drug-induced cytotoxicity in PBMC (MTS); assay type: cell-based; settings: for Toxicity testing, mean optical density: human, 7 days
Method: Drug efficacy was determined by the production of supernatant HIV-1 p24. Drug-induced cytotoxicity was determined by the metabolic reduction of tetrazolium salts (MTS; Promega).
The antiviral drug or agent of the invention, H2K-1001 (90i), was solubilized. PBMCs, stimulated with PHA (phytohemagglutinin) for three days were employed throughout. Virus stocks (U.S. Clinical isolates) grown in PBMCs only, that past the necessary quality controls (i.e., replicate to high titer in PBMCs and meet the requirements as to genotype and phenotype) were rapidly thawed and maintained on ice until required for infection.
Virus and cell controls were included on each test plate. Virus was added after cells and drugs were mixed. Cell, drug and virus containing cultures were incubated for seven (7) days with an interim feeding at day three or four.
Supernatants were sampled at seven days for p24 determination by antigen capture ELISA. Cytotoxicity was measured by the metabolic reduction of the tetrazolium salt according to the manufacturer’s (Promega) recommendations.
The drug analysis reports from these studies are provided below in Tables 7-10. Efficacy (EC50) and viability (IC50) determinations were made using Cho and Cho Median Effect Equation, as noted above. Efficacy is expressed as the 50% effective concentration (EC50) and drug induced toxicity as the 50% inhibitory concentration (IC50).

[2] = system: monotropic HIV-1 (macbal); experiment: Antiretroviral effect against monotropic/neurotropic HIV-1 in monocyte; assay type: cell-based; settings: monotropic HIV-1 (macbal) in monocyte
[3] = system: multi-drug resistant HIV-1 (MDR-27221); experiment: Inhibitory activity against multi-drug resistant HIV-1 clinical isolate; assay type: cell-based; settings: MDR-27221 strain
Description: Furthermore, a resistance conferring mutation has been identified for virtually all antiretroviral agents in clinical practice. A test virus parental stock originated from a genotypic antiretroviral resistance test (GART) study. Additionally, a clinical isolate was pre-confirmed for genetic and phenotypic variance prior to this test. […] Accordingly, the fact that 90I may be effective against MDR viruses with multiple modes of action, it can replace the need for combination HIV drug therapy. This finding may be highly significant because typical current single target-oriented designer antiretroviral drugs have seriously been challenged by resistant viruses. Due to natural selection, the HIV-1 virus may have developed several survival strategies that include mutation.

HIV-1 = experiment: Cell based time course study (mode of action); settings: AZT and Indinavir as controls
Description: As such, the cell based time course study is such an important tool for the determination of viral kinetics and a mode of action for a drug. […] The dynamics of the interactions relate to the viral kinetic of infection and drug addition at various time points. In the various cell-based assays conducted on H2K1001 and/or 90I, it may be reasonably concluded that the compound works both early and late.

[4] = system: gamma interferon production; experiment: Gamma interferon production in spleenocyte of mice; assay type: cell-based; settings: versus positive control PMA-Ionomycin combination
Description: Referring again to FIG. 14, activated CD8+ cells are reported to produce high levels of gamma interferon, which may be involved in the anti-HIV-1 immune responses, contributing to both control of viral spread and concomitant lymphoid follicular lyses. […] This finding may have a far-reaching implication and relevant in the restoration of immune system competence.

With `O=C(OCCOCCOC(=O)c1ccccc1)c1ccccc1` [90I, diethylene glycol dibenzoate] the “Efficacy % CC” value (HIV-1 (RF); 0.01 ug/ml) was 42 % CC, the “Efficacy testing, mean optical density” value (HIV-1 (RF); 0.01 ug/ml) was 1.0282 and the “Efficacy testing, optical density of single wells” value (“Efficacy testing, optical density” for short) (HIV-1 (RF); 0.01 ug/ml) was 0.9892 and 1.0238 and 1.0477. The “Efficacy % CC” value (HIV-1 (RF); 0.03 ug/ml) was 80 % CC, the “Efficacy testing, mean optical density” value (HIV-1 (RF); 0.03 ug/ml) was 1.9368 and the “Efficacy testing, optical density” value (HIV-1 (RF); 0.03 ug/ml) was 2.0839 and 1.6926 and 2.0343. For the same compound, the “Efficacy % CC” value (HIV-1 (RF); 0.1 ug/ml) was 87 % CC, the “Efficacy testing, mean optical density” value (HIV-1 (RF); 0.1 ug/ml) was 2.1073 and the “Efficacy testing, optical density” value (HIV-1 (RF); 0.1 ug/ml) was 2.2196 and 2.0140 and 2.0883. For the same compound, the “Efficacy % CC” value (HIV-1 (RF); 0.3 ug/ml) was 83 % CC, the “Efficacy testing, mean optical density” value (HIV-1 (RF); 0.3 ug/ml) was 2.0091 and the “Efficacy testing, optical density” value (HIV-1 (RF); 0.3 ug/ml) was 2.1099 and 1.8158 and 2.1016. The “Efficacy % CC” value (HIV-1 (RF); 1 ug/ml) was 84 % CC, the “Efficacy testing, mean optical density” value (HIV-1 (RF); 1 ug/ml) was 2.0264 and the “Efficacy testing, optical density” value (HIV-1 (RF); 1 ug/ml) was 2.2771 and 1.9186 and 1.8914. For the same compound, the “Efficacy % CC” value (HIV-1 (RF); 3 ug/ml) was 84 % CC, the “Efficacy testing, mean optical density” value (HIV-1 (RF); 3 ug/ml) was 2.0459 and the “Efficacy testing, optical density” value (HIV-1 (RF); 3 ug/ml) was 2.2499 and 1.9311 and 1.9576. For the same compound, the “Efficacy % CC” value (HIV-1 (RF); 10 ug/ml) was 82 % CC, the “Efficacy testing, mean optical density” value (HIV-1 (RF); 10 ug/ml) was 1.9797 and the “Efficacy testing, optical density” value (HIV-1 (RF); 10 ug/ml) was 2.0385 and 2.0038 and 1.8968. The “Efficacy % CC” value (HIV-1 (RF); 33 ug/ml) was 86 % CC, the “Efficacy testing, mean optical density” value (HIV-1 (RF); 33 ug/ml) was 2.0805 and the “Efficacy testing, optical density” value (HIV-1 (RF); 33 ug/ml) was 2.1945 and 1.9560 and 2.0909. The “Efficacy % CC” value (HIV-1 (RF); 100 ug/ml) was 88 % CC, the “Efficacy testing, mean optical density” value (HIV-1 (RF); 100 ug/ml) was 2.1221 and the “Efficacy testing, optical density” value (HIV-1 (RF); 100 ug/ml) was 2.2450 and 1.9588 and 2.1625. For the same compound, the “therapeutic index (TI=IC50/EC50)” value (HIV-1 (RF); HIV-1 RF in CEM-SS) was “greater than 5000”, the EC50 (HIV-1 (RF); Human immunodeficiency virus 1, CEM-SS, read-out: 50% effective concentration (EC50), RF laboratory strain of HIV-1 in CEM-SS) was roughly 0.02 µg/mL (≈ 0.0636 µM) and the “Toxicity % CC” value ([1]; 0.01 ug/ml) was 94 % CC. For the same compound, the “Toxicity % CC” value ([1]; 0.03 ug/ml) was 103 % CC, the “Toxicity % CC” value ([1]; 0.10 ug/ml) was 91 % CC and the “Toxicity % CC” value ([1]; 0.33 ug/ml) was 94 % CC. The “Toxicity % CC” value ([1]; 1 ug/ml) was 97 % CC, the “Toxicity % CC” value ([1]; 3 ug/ml (3.2 in Table 11)) was 94 % CC and the “Toxicity % CC” value ([1]; 10 ug/ml) was 100 % CC. For the same compound, the “Toxicity % CC” value ([1]; 32 ug/ml) was 104 % CC, the “Toxicity % CC” value ([1]; 100 ug/ml) was 111 % CC and the IC50 ([1]; PBMC, read-out: IC50 (drug induced toxicity)) was greater than 100 µg/mL. For the same compound, the “IC50 (drug induced toxicity)” value ([1]; PBMC, unit not given) was “greater than 100”, the “Toxicity testing, mean optical density” value ([1]; 0.01 ug/ml) was 1.3114 and the “Toxicity testing, mean optical density” value ([1]; 0.03 ug/ml) was 1.4316. For the same compound, the “Toxicity testing, mean optical density” value ([1]; 0.1 ug/ml) was 1.2654, the “Toxicity testing, mean optical density” value ([1]; 0.33 ug/ml) was 1.2992 and the “Toxicity testing, mean optical density” value ([1]; 1 ug/ml) was 1.3474. For the same compound, the “Toxicity testing, mean optical density” value ([1]; 3 ug/ml) was 1.3102, the “Toxicity testing, mean optical density” value ([1]; 10 ug/ml) was 1.3987 and the “Toxicity testing, mean optical density” value ([1]; 32 ug/ml) was 1.4463. The “Toxicity testing, mean optical density” value ([1]; 100 ug/ml) was 1.5431, the EC50 ([2]; Human immunodeficiency virus 1, read-out: 50% effective concentration (EC50)) was 0.03 µg/mL (≈ 0.0954 µM) and the TI [2] was “greater than 4000”. The EC50 ([3]; Human immunodeficiency virus 1) was 3 µg/mL, the TI [3] was greater than 333 and the “mode of action (time of inhibition)” value (HIV-1) was “inhibit HIV-1 both early and late”. For the same compound, the “amount of gamma interferon produced” value [4] was “equivalent to that of the positive control”.
